Drawing on patent publication US7338956B2, “Acylamino-substituted heteroaromatic compounds and their use as pharmaceuticals” (Sanofi-Aventis Deutschland GmbH, priority 2002, dated 2008), this text covers EC50 for two molecules.

The experiment concerns eNOS promoter. The experiment is described as follows: Determination of activation of eNOS transcription (eNOS promoter firefly luciferase reporter gene assay). The experiment is classed as cell-based. Particulars: human endothelial cell line stable transfected with eNOS promoter-luciferase construct; 18 h incubation; EC50 determined graphically; read-out: EC50 values of transcription induction ratio. As to the method: Activation of eNOS transcription was determined as described in detail in Li et al., “Activation of protein kinase C alpha and/or epsilon enhances transcription of the human endothelial nitric oxide synthase gene”, Mol. Pharmacol. 53 (1998) 630 (the content of which is incorporated herein by reference). Briefly, a 3.5 kB long fragment 5′ of the starting codon of the eNOS gene was cloned, sequenced and cloned in firefly luciferase expression plasmids to monitor activation of the eNOS promoter by reporter gene activity. A human endothelial cell line stable transfected and expressing this promoter-reporter construct was used for compound testing. Cells were incubated for 18 h with compounds.
All compounds were dissolved in sterile dimethyl sulfoxide (DMSO). A final concentration of 0.5% DMSO in complete medium was allowed. Induction of reporter gene expression in these cells was measured using a standard luciferase assay system (Promega, Cat. No E150) according to the manufacturer's instructions. Luciferase induction in cells incubated with compounds were compared to those incubated with solvent alone. The ratio of both activities (transcription induction ratio, TIR) was plotted as a function of compound concentration. […] EC50 values of transcription induction ratios as a function of compound concentration were determined graphically.
Background: In a reporter assay the amount or activity of a reporter protein is the signal.

For `O=C(Nc1nc2cc(Cl)ccc2s1)c1ccc(F)cc1` [Example 123, N-(5-Chlorobenzothiazol-2-yl)-4-fluorobenzamide], the EC50 was determined as 12 µM.

`O=C(Nc1nc2cccc(Cl)c2s1)c1ccc(F)cc1` [Example 124, N-(7-Chlorobenzothiazol-2-yl)-4-fluorobenzamide]: the EC50 was < 0.1 µM.
